Data reported in US10119124B2 (priority 2007, dated 2018).

How the values were obtained:
[1] = system: M2 mutants and wild-type WSN-UdM viruses; format: cell-based, influenza A virus
[2] = system: M2 mutants and wild-type WSN-UdM viruses; conditions: cited from earlier work

NC12CC3CC(CC(C3)C1)C2 [amantadine]
effect on yield and plaque size of wild-type WSN-UdM virus [1]: markedly reduced
concentrations at which the drug selectively inhibits viral replication ([2]; cell culture (Appleyard, 1977)): 0.1 to 5 µM
concentrations of nonspecific action (increase in pH of endosomes) ([2]; cell culture (Daniels et al., 1985)): > 50 μM
